Assay results as given in ChEMBL document CHEMBL1136456, “Synthesis and biological evaluation of benzazepine oxazolidinone antibacterials” (2003).
Converted amounts (≈) assume the structure as drawn.

Assays:
Format in all cases: functional
Staphylococcus aureus [1] = assay: Antibacterial activity against Methicillin-suceptible Staphylococcus aureus UC9218
Haemophilus influenzae = assay: Antibacterial activity against Haemophilus influenzae UC30063 (Haemophilus influenzae)
[2] = test system: Staphylococcus epidermidis; assay: Antibacterial activity against Methicillin-resistant Staphylococcus epidermidis UC12084 (S. e)
Enterococcus faecalis = assay: Antibacterial activity against Enterococcus faecalis UC9217 (E. f)
Streptococcus pneumoniae = assay: Antibacterial activity against Streptococcus pneumoniae UC9912 (S.p)
Mus musculus = assay: Dose (administered orally) required to protect the Staphylococcus aureus infected mice was determined; conditions: po
Staphylococcus aureus [3] = assay: Antibacterial activity against Methicillin-resistant Staphylococcus aureus UC6685 (S. a.)
Moraxella catarrhalis = assay: Antibacterial activity against Moraxella catarrhalis UC30610 (M. cat)

Row | SMILES | MIC (Staphylococcus aureus [1]) | MIC (Haemophilus influenzae) | MIC [2] | MIC (Enterococcus faecalis) | MIC (Streptococcus pneumoniae) | ED50 (Mus musculus) | MIC (Staphylococcus aureus [3]) | MIC (Moraxella catarrhalis)
1 | CC(=O)NC[C@H]1CN(c2ccc3c(c2)CCCN(C(C)=O)C3)C(=O)O1 | 8 µg/mL (≈ 23.2 µM) | > 64 µg/mL | 4 µg/mL (≈ 11.6 µM) | 8 µg/mL (≈ 23.2 µM) | 2 µg/mL (≈ 5.79 µM) | – | – | –
2 | CC(=O)NC[C@H]1CN(c2ccc3c(c2)CCCN(C=O)C3)C(=O)O1 | 1 µg/mL (≈ 3.02 µM) | 32 µg/mL (≈ 96.6 µM) | 2 µg/mL (≈ 6.04 µM) | 2 µg/mL (≈ 6.04 µM) | 1 µg/mL (≈ 3.02 µM) | 8.1 mg/kg/day | 1 µg/mL (≈ 3.02 µM) | 4 µg/mL (≈ 12.1 µM)
3 | CC(=O)NC[C@H]1CN(c2ccc3c(c2)CCN(S(C)(=O)=O)CC3)C(=O)O1 | 16 µg/mL (≈ 41.9 µM) | 32 µg/mL (≈ 83.9 µM) | 16 µg/mL (≈ 41.9 µM) | 32 µg/mL (≈ 83.9 µM) | 8 µg/mL (≈ 21 µM) | – | – | > 64 µg/mL
4 | CC(=O)NC[C@H]1CN(c2ccc3c(c2)CCN(C(C)=O)CC3)C(=O)O1 | 4 µg/mL (≈ 11.6 µM) | 64 µg/mL (≈ 185 µM) | 1 µg/mL (≈ 2.9 µM) | 2 µg/mL (≈ 5.79 µM) | 1 µg/mL (≈ 2.9 µM) | – | – | –
5 | CC(=O)NC[C@H]1CN(c2ccc3c(c2)CCCCN3)C(=O)O1 | 64 µg/mL (≈ 211 µM) | > 64 µg/mL | 16 µg/mL (≈ 52.7 µM) | 64 µg/mL (≈ 211 µM) | 16 µg/mL (≈ 52.7 µM) | – | 32 µg/mL (≈ 105 µM) | > 64 µg/mL
6 | CC(=O)NC[C@H]1CN(c2ccc3c(c2)CCCN(C(=O)NC(C)C)C3)C(=O)O1 | 64 µg/mL (≈ 165 µM) | > 64 µg/mL | 32 µg/mL (≈ 82.4 µM) | 32 µg/mL (≈ 82.4 µM) | 8 µg/mL (≈ 20.6 µM) | – | – | –
7 | CC(=O)NC[C@H]1CN(c2ccc3c(c2)CCNCC3)C(=O)O1 | 32 µg/mL (≈ 105 µM) | > 64 µg/mL | 8 µg/mL (≈ 26.4 µM) | 32 µg/mL (≈ 105 µM) | 8 µg/mL (≈ 26.4 µM) | – | 64 µg/mL (≈ 211 µM) | > 64 µg/mL
8 | CC(=O)NC[C@H]1CN(c2ccc3c(c2)CCCCN3C(=O)CO)C(=O)O1 | 64 µg/mL (≈ 177 µM) | > 64 µg/mL | 8 µg/mL (≈ 22.1 µM) | 64 µg/mL (≈ 177 µM) | 8 µg/mL (≈ 22.1 µM) | – | 32 µg/mL (≈ 88.5 µM) | > 64 µg/mL
9 | CC(=O)NC[C@H]1CN(c2ccc3c(c2)CCCCN3C(=O)OCc2ccccc2)C(=O)O1 | > 64 µg/mL | > 64 µg/mL | > 64 µg/mL | > 64 µg/mL | > 64 µg/mL | – | – | > 64 µg/mL
10 | CC(=O)NC[C@H]1CN(c2ccc3c(c2)CCCN(C(=O)OCc2ccccc2)C3)C(=O)O1 | 16 µg/mL (≈ 36.6 µM) | > 64 µg/mL | 16 µg/mL (≈ 36.6 µM) | 32 µg/mL (≈ 73.1 µM) | 8 µg/mL (≈ 18.3 µM) | – | – | –
11 | COC(=O)N1CCCc2cc(N3C[C@H](CNC(C)=O)OC3=O)ccc2C1 | 8 µg/mL (≈ 22.1 µM) | > 64 µg/mL | 2 µg/mL (≈ 5.53 µM) | 4 µg/mL (≈ 11.1 µM) | 2 µg/mL (≈ 5.53 µM) | – | – | –
12 | CC(=O)NC[C@H]1CN(c2ccc3c(c2)CCCN(C(=O)CO)C3)C(=O)O1 | 4 µg/mL (≈ 11.1 µM) | 64 µg/mL (≈ 177 µM) | 1 µg/mL (≈ 2.77 µM) | 4 µg/mL (≈ 11.1 µM) | 1 µg/mL (≈ 2.77 µM) | – | 4 µg/mL (≈ 11.1 µM) | 16 µg/mL (≈ 44.3 µM)
13 | CC(=O)NC[C@H]1CN(c2ccc3c(c2)CCCCN3C=O)C(=O)O1 | 2 µg/mL (≈ 6.04 µM) | 16 µg/mL (≈ 48.3 µM) | < 0.05 µg/mL | 2 µg/mL (≈ 6.04 µM) | < 0.05 µg/mL | – | 2 µg/mL (≈ 6.04 µM) | 4 µg/mL (≈ 12.1 µM)
14 | CC(=O)NC[C@H]1CN(c2ccc3c(c2)CCN(C(=O)Cc2ccccc2)CC3)C(=O)O1 | 4 µg/mL (≈ 9.49 µM) | > 64 µg/mL | 1 µg/mL (≈ 2.37 µM) | 2 µg/mL (≈ 4.74 µM) | 1 µg/mL (≈ 2.37 µM) | – | – | –
15 | CC(=O)NC[C@H]1CN(c2ccc3c(c2)NCCCC3)C(=O)O1 | 32 µg/mL (≈ 105 µM) | > 64 µg/mL | 8 µg/mL (≈ 26.4 µM) | 32 µg/mL (≈ 105 µM) | 8 µg/mL (≈ 26.4 µM) | – | 16 µg/mL (≈ 52.7 µM) | > 64 µg/mL
16 | CC(=O)NC[C@H]1CN(c2ccc3c(c2)CCN(C(=O)CO)CC3)C(=O)O1 | 2 µg/mL (≈ 5.53 µM) | 32 µg/mL (≈ 88.5 µM) | 1 µg/mL (≈ 2.77 µM) | 4 µg/mL (≈ 11.1 µM) | < 0.05 µg/mL | 8.5 mg/kg/day | 2 µg/mL (≈ 5.53 µM) | 8 µg/mL (≈ 22.1 µM)
17 | CC(=O)NC[C@H]1CN(c2ccc3c(c2)CCN(C(=O)OCc2ccccc2)CC3)C(=O)O1 | 4 µg/mL (≈ 9.14 µM) | > 64 µg/mL | 1 µg/mL (≈ 2.29 µM) | 4 µg/mL (≈ 9.14 µM) | < 0.05 µg/mL | – | 2 µg/mL (≈ 4.57 µM) | 16 µg/mL (≈ 36.6 µM)
18 | CC(=O)NC[C@H]1CN(c2ccc3c(c2)CCN(C(=O)c2ccccc2)CC3)C(=O)O1 | 8 µg/mL (≈ 19.6 µM) | > 64 µg/mL | 1 µg/mL (≈ 2.45 µM) | 2 µg/mL (≈ 4.91 µM) | 1 µg/mL (≈ 2.45 µM) | – | – | –
19 | COC(=O)N1CCc2ccc(N3C[C@H](CNC(C)=O)OC3=O)cc2CC1 | 4 µg/mL (≈ 11.1 µM) | > 64 µg/mL | 1 µg/mL (≈ 2.77 µM) | 2 µg/mL (≈ 5.53 µM) | 1 µg/mL (≈ 2.77 µM) | – | – | –
20 | CC(=O)NC[C@H]1CN(c2ccc3c(c2)CCCNC3)C(=O)O1 | > 64 µg/mL | > 64 µg/mL | 32 µg/mL (≈ 105 µM) | > 64 µg/mL | 8 µg/mL (≈ 26.4 µM) | – | – | > 64 µg/mL
21 | CC(=O)NC[C@H]1CN(c2ccc3c(c2)N(C=O)CCCC3)C(=O)O1 | > 64 µg/mL | > 64 µg/mL | > 64 µg/mL | > 64 µg/mL | > 64 µg/mL | – | – | > 64 µg/mL
22 | CC(=O)NC[C@H]1CN(c2ccc3c(c2)CCCN(C(=O)Nc2ccccc2)C3)C(=O)O1 | 16 µg/mL (≈ 37.9 µM) | 64 µg/mL (≈ 151 µM) | 4 µg/mL (≈ 9.47 µM) | 4 µg/mL (≈ 9.47 µM) | 1 µg/mL (≈ 2.37 µM) | – | – | –
23 | CC(=O)NC[C@H]1CN(c2ccc3c(c2)CCCN(C(=O)Cc2ccccc2)C3)C(=O)O1 | 32 µg/mL (≈ 75.9 µM) | > 64 µg/mL | 8 µg/mL (≈ 19 µM) | 16 µg/mL (≈ 38 µM) | 4 µg/mL (≈ 9.49 µM) | – | – | –
24 | CC(=O)NC[C@H]1CN(c2ccc3c(c2)CCN(C=O)CC3)C(=O)O1 | 4 µg/mL (≈ 12.1 µM) | > 64 µg/mL | < 0.05 µg/mL | 4 µg/mL (≈ 12.1 µM) | < 0.05 µg/mL | – | 2 µg/mL (≈ 6.04 µM) | 8 µg/mL (≈ 24.1 µM)
25 | CC(=O)NC[C@H]1CN(c2ccc3c(c2)CCN(C(=O)Oc2ccccc2)CC3)C(=O)O1 | 4 µg/mL (≈ 9.45 µM) | > 64 µg/mL | 2 µg/mL (≈ 4.72 µM) | 4 µg/mL (≈ 9.45 µM) | 2 µg/mL (≈ 4.72 µM) | – | – | –
26 | CC(=O)NC[C@H]1CN(c2ccc3c(c2)CCCN(C(=O)NCCc2ccccc2)C3)C(=O)O1 | 64 µg/mL (≈ 142 µM) | > 64 µg/mL | 32 µg/mL (≈ 71 µM) | 32 µg/mL (≈ 71 µM) | 8 µg/mL (≈ 17.8 µM) | – | – | –
27 | CC(=O)NC[C@H]1CN(c2ccc(N3CCOCC3)c(F)c2)C(=O)O1 [LINEZOLID] | – | 16 µg/mL (≈ 47.4 µM) | 1 µg/mL (≈ 2.96 µM) | – | – | 5.6 mg/kg/day | – | 8 µg/mL (≈ 23.7 µM)
